Source: US8709718B1, “Method of treating lung cancer” (Max-Planck-Gesellschaft zur Forderung der Wissenschaften …, priority 2011, dated 2014)

Tests used:
[1] = tested on: FGFR1 amplified cell line H520; test: FGFR1 phosphorylation by immunoprecipitation; assay type: cell-based; settings: H520, 1 μM
Protocol: For the detection of FGFR1 phosphorylation, whole-cell lysates (0.5-1 mg) in NP40 lysis buffer was incubated with agarose A/G Plus preconjugated with the FGFR1 antibody. Immunoprecipitates were washed in NP40 lysis buffer, boiled in sample buffer, and subjected to SDS-PAGE followed by immunoblotting using an anti phospho-tyrosine residues antibody to detect specific phosphorylation of FGFR1.

[2] = tested on: phospho-ERK, phospho-AKT in FGFR1-amplified tumors; test: Immunohistochemical staining of explanted tumors; assay type: in vivo, mice; settings: end of treatment
From the text: Mice bearing FGFR1-amplified tumors were sacrificed at the end of treatment. Tumors were exgrafted and embedded in paraffin. […] Antibodies recognizing pAKT, pERK, AKT and ERK were obtained from Cell signaling.

[3] = tested on: 83 lung cancer cell lines; test: Cell-line screening, viability by cellular ATP content (CellTiter-Glo); assay type: cell-based
[4] = tested on: FGFR1-amplified lung cancer cells expressing FGFR1^V561M; settings: 0.5 μM and 1.0 μM
From the text: The V561M mutation was introduced into FGFR1 cloned in pBABE-Puro by site-directed mutagenesis. Replication-incompetent retroviruses were produced by contransfection with the pCL-ampho plasmid in HEK 293T cells. Hairpin shRNA targeting the different genes were ordered from Sigma. Replication-incompetent lentiviruses were produced from pLKO.1-Puro based vectors by contransfection with Δ8.9 and pMGD2 in 293T cells as described previously (Sos et al., Cancer Res 70, 868-874 (2010)). After transduction cells were selected with puromycin (1.5 μg/ml) and five days after selection cells were counted using trypan blue.

[5] = tested on: lung cancer cells carrying amplified FGFR1; test: Apoptosis by Annexin V/PI flow cytometry; assay type: cell-based; settings: 1.0 μM, 72 hours, versus DMSO; specifically in FGFR1-amplified cells; p=0.008
Protocol: Finally the cells were analyzed on a FACS Canto FlowCytometer (BD Biosciences).

[6] = tested on: H1975 (FGFR1 wild type) cells; test: Xenograft mouse model, EGFR-mutant H1975 cells; assay type: in vivo, mice; settings: xenografted EGFR-mutant H1975 cells
Protocol: (§1) All animal procedures were approved by the local animal protection committee and the local authorities. 5*10^6 tumor cells were injected subcutaneously into male nude mice.

[7] = tested on: PDGFRA- and FGFR1-amplified cell line H1703; settings: 96 h of compound treatment, increasing concentrations
Protocol: Viability was determined after 96 hours by measuring cellular ATP content (CellTiter-Glo, Promega). Half-maximal inhibitory concentrations (GI50) were determined using the statistical data analysis software “R” with the package “ic50”.

[8] = target: FGFR1 (Homo sapiens, UniProt P11362); settings: FGFR1 one of only two of 105 kinases
[9] = tested on: EGFR-mutant cell line HCC827; test: Immunoblotting of phosphorylated FGFR and downstream molecules; assay type: cell-based
From the text: (§2) The following antibodies were used for immunoblotting: β-actin (MPBioscience), phospho-FGFR(Y653, Y654), pFRS2 (Tyr196), p-AKT (S473), pS6, S6, AKT, p-ERK, ERK (Cell Signaling Technology), total-FGFR1 (Santa Cruz), anti-rabbit-HRP, anti-mouse-HRP-antibody (Millipore).

[10] = tested on: FGFR1-amplified cells (H1581, H520); test: as above; assay type: cell-based
From the text: as §2

[11] = Pharmacokinetics of PD173074 in mice; assay type: in vivo
Protocol: Pharmacokinetic data were created by taking blood-samples from male nude mice by puncture of the tail-vein under isoflurane anesthesia. […] All blood samples were centrifuged; the blood plasma-containing supernatant was extracted and stored at -20° C. Analytic samples were prepared from the blood plasma by acetonitrile extraction with an internal standard of 1 μM griseofulvin. […] Pharmacokinetic data was evaluated with WinNonlin Software (Pharsight).

[12] = tested on: FGFR1-amplified cell lines; test: Soft-agar colony formation assay; assay type: cell-based; settings: FGFR1-amplified cells
Protocol: Cells were suspended in growth media containing 10% FCS and 0.6% agar and plated in triplicate on 50 μl solidified growth medium (10% FCS; 1.0% agar). Growth medium containing indicated compound concentrations was added on top. Colonies were analyzed using the Scanalyzer imaging system (Lemnatec, Germany).

[13] = tested on: H1581 cells; test: Xenograft mouse model, FGFR1-amplified H1581 cells; assay type: in vivo; settings: 100 mg/kg twice a day, oral gavage, mice engrafted with FGFR1-amplified cells
Protocol: as §1

FGFR1, sequence (P11362 22-822): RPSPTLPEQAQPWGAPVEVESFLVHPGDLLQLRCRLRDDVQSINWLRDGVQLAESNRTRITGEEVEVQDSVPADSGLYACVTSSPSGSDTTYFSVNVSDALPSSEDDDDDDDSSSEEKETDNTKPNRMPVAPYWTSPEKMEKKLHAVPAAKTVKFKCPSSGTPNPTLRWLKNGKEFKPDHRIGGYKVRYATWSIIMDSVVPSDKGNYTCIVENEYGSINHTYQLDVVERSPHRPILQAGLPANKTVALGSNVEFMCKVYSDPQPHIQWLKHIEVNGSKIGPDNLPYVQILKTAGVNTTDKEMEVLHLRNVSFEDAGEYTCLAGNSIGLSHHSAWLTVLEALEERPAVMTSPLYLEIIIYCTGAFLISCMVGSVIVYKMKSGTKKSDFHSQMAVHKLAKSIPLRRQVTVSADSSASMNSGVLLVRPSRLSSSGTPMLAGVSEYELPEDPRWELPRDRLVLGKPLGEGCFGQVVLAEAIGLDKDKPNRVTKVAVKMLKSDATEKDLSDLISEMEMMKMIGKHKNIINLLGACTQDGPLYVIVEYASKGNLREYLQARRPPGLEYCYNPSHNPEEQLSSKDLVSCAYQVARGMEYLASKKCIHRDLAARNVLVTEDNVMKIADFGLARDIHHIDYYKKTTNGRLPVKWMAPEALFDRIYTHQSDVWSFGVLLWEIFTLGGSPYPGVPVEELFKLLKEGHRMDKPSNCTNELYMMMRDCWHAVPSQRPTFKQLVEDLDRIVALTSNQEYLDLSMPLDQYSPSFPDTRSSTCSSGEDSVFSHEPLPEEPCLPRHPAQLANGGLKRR

SMILES: CCN(CC)CCCCNc1ncc2cc(-c3cc(OC)cc(OC)c3)c(NC(=O)NC(C)(C)C)nc2n1 [PD173074]
- phosphorylation of FGFR1 (phosphotyrosine after immunoprecipitation) [1]: leads to dephosphorylation of FGFR1
- levels of phospho-AKT in explanted tumors [2]: not of phospho-AKT
- levels of phospho-ERK in explanted tumors [2]: reduction in the levels of phospho-ERK
- sensitivity of FGFR1-amplified cell line H520 ([3]; H520, derived from a squamous-cell lung cancer patient): sensitive
- GI50 ([3]; four of the 83 lung cancer cell lines tested, viability after 96 hours, read-out: half-maximal growth inhibitory concentration (GI50)): < 1000 nM
- growth inhibition ([3]; specifically in lung cancer cells carrying amplified FGFR1, p=0.0002): inhibited growth
- cytotoxicity and dephosphorylation of FGFR on expression of FGFR1^V561M [4]: abolished
- induction of apoptosis [5]: induced apoptosis
- tumor regression [6]: did not show signs of regression
- activity on viability of H1703 cells [7]: not active
- kinase inhibition [8]: strongly inhibited
- levels of phosphorylated FGFR1 and FRS2 [9]: not in the EGFR-mutant cell line HCC827
- levels of phosphorylated FGFR1 [10]: reduced the levels of phosphorylated FGFR1
- phosphorylation of ERK [10]: inhibition of phosphorylation of ERK
- exposure ([11]; 50 mg/kg twice a day compared to 100 mg/kg twice a day): only a minimal exposure
- half-life in vivo ([11]; mice): short half-life
- colony formation in soft agar [12]: decreased colony formation
- tumor size [13]: tumor shrinkage
